Read-outs that look alike come from different tables or passages of the source.
Key:
[1] = test system: K562 cells; assay: Cell growth inhibitory effect, K562 cells (WST-8, 72 hours); details: for IC50: read-out: K562 cells (IC50 value: μM); for Ratio (U937 cells/K562 cells): ratio of IC50 values U937 cells/K562 cells
[2] = test system: U937 cells; assay: Cell growth inhibitory effect, U937 cells (WST-8, 72 hours); details: Homo sapiens, U-937, 72 h, read-out: U937 cells (IC50 value: μM)
[3] = BCR-ABL positive K562 cells, 72 hours, cell growth inhibition

Row | Compound | melting point | IC50 ([1]; Homo sapiens, K562, 72 h) | IC50 [2] | Ratio (U937 cells/K562 cells) [1] | IC50 [1, 3]
1 | Cc1ccc(NC(=O)c2ccc(CN3CCN(C)CC3)c(Br)c2)cc1Nc1nccc(-c2cncnc2)n1.Cl | 184 to 186 °C (dec.) |  |  |  | 
2 | Cc1ccc(NC(=O)c2ccc(CN3CCN(C)CC3)c(C(F)(F)F)c2)cc1Nc1nccc(-c2cncc(Br)c2)n1.Cl | 184 to 187 °C |  |  |  | 
3 | CS(=O)(=O)O.Cc1ccc(NC(=O)c2ccc(CN3CCN(C)CC3)c(C(F)(F)F)c2)cc1Nc1nccc(-c2cncnc2)n1 | 171 to 173 °C |  |  |  | 
4 | Cc1ccc(NC(=O)c2ccc(CN3CCN(C)CC3)c(Br)c2)cc1Nc1cncc(-c2cccnc2)c1 (hydrate or solvate) [Example 17, 3-bromo-4-(4-methylpiperazin-1-ylmethyl)-N-{4-methyl-3-[3-(3-pyridyl)pyridin-5-ylamino]phenyl}benzamide] | 139 to 141 °C |  |  |  | 
5 | Cc1ccc(NC(=O)c2ccc(CN3CCN(C)CC3)c(Br)c2)cc1Nc1cncc(-c2cccnc2)n1 (hydrate or solvate) [Example 19, 3-bromo-4-(4-methylpiperazin-1-ylmethyl)-N-{4-methyl-3-[2-(3-pyridyl)pyrazin-6-ylamino]phenyl}benzamide] | 192 to 193 °C |  |  |  | 
6 | Cc1ccc(NC(=O)c2ccc(CN3CCN(C)CC3)c(Br)c2)cc1Nc1nncc(-c2cccnc2)n1 (hydrate or solvate) [Example 20, 3-bromo-4-(4-methylpiperazin-1-ylmethyl)-N-{4-methyl-3-[5-(3-pyridyl)-1,2,4-triazin-3-ylamino]phenyl}benzamide] | 219 to 221 °C |  |  |  | 
7 | Cc1ccc(NC(=O)c2ccc(CN3CCN(C)CC3)c([N+](=O)[O-])c2)cc1Nc1nccc(-c2cccnc2)n1 (hydrate or solvate) [Example 22, 4-(4-methylpiperazin-1-ylmethyl)-3-nitro-N-{4-methyl-3-[4-(3-pyridyl)pyrimidin-2-ylamino]phenyl}benzamide] | 184 to 186 °C |  |  |  | 
8 | CCN1CCN(Cc2ccc(C(=O)Nc3ccc(C)c(Nc4nccc(-c5cccnc5)n4)c3)cc2Br)CC1 (hydrate or solvate) [Example 27, 3-bromo-4-(4-ethylpiperazin-1-ylmethyl)-N-{4-methyl-3-[4-(3-pyridyl)pyrimidin-2-ylamino]phenyl}benzamide] | 202 to 203 °C |  |  |  | 
9 | Cc1ccc(NC(=O)c2ccc(CN3CCN(C)CC3)c(Br)c2)cc1Nc1nccc(-c2cccnc2)n1 [Example 1, 3-bromo-4-(4-methylpiperazin-1-ylmethyl)-N-{4-methyl-3-[4-(3-pyridyl)pyrimidin-2-ylamino]phenyl}benzamide] | 202 to 203 °C (dec.) | 0.0022 µM | 4.8 µM |  | 
10 | Cc1ccc(NC(=O)c2ccc(CN3CCN(C)CC3)c(F)c2)cc1Nc1nccc(-c2cccnc2)n1 [Example 4, 3-fluoro-4-(4-methylpiperazin-1-ylmethyl)-N-{4-methyl-3-[4-(3-pyridyl)pyrimidin-2-ylamino]phenyl}benzamide] | 197 to 199 °C (dec.) | 0.033 µM | 12.4 µM |  | 
11 | Cc1ccc(NC(=O)c2ccc(CN3CCN(C)CC3)c(C(F)(F)F)c2)cc1Nc1nccc(-c2cccnc2)n1 [Example 5, 4-(4-methylpiperazin-1-ylmethyl)-3-trifluoromethyl-N-{4-methyl-3-[4-(3-pyridyl)pyrimidin-2-ylamino]phenyl}benzamide] | 182 to 183 °C (dec.) | 0.0008 µM | 3.99 µM |  | 
12 | Cc1ccc(NC(=O)c2ccc(CN3CCN(C)CC3)c(C(F)(F)F)c2)cc1Nc1nccc(-c2cncnc2)n1 [Example 6, 4-(4-methylpiperazin-1-ylmethyl)-3-trifluoromethyl-N-{4-methyl-3-[4-(5-pyrimidinyl)pyrimidin-2-ylamino]phenyl}benzamide] | 231 to 233 °C (dec.) | 0.0005 µM | 5.39 µM |  | 
13 | Cc1ccc(NC(=O)c2ccc(CN3CCN(C)CC3)c(Br)c2)cc1Nc1nccc(-c2ccc(Cl)nc2)n1 [Example 8, 3-bromo-4-(4-methylpiperazin-1-ylmethyl)-N-{3-[4-(6-chloropyridin-3-yl)pyrimidin-2-ylamino]-4-methylphenyl}benzamide] | 219 to 222 °C (dec.) |  |  |  | 
14 | Cc1ccc(NC(=O)c2ccc(CN3CCN(C)CC3)c(Br)c2)cc1Nc1nccc(-c2cccnn2)n1 [Example 12, 3-bromo-4-(4-methylpiperazin-1-ylmethyl)-N-{4-methyl-3-[4-(3-pyridazinyl)pyrimidin-2-ylamino]phenyl}benzamide] | 185 to 187 °C (dec.) |  |  |  | 
15 | Cc1ccc(NC(=O)c2ccc(CN3CCN(C)CC3)c(Br)c2)cc1Nc1cc(-c2cccnc2)ccn1 [Example 14, 3-bromo-4-(4-methylpiperazin-1-ylmethyl)-N-{4-methyl-3-[4-(3-pyridyl)pyridin-2-ylamino]phenyl}benzamide] | 244 to 245 °C (dec.) | 0.003 µM | > 10 µM | >3333.3 | 
16 | Cc1ccc(NC(=O)c2ccc(CN3CCN(C)CC3)c(Br)c2)cc1Nc1cc(-c2cncnc2)ccn1 [Example 15, 3-bromo-4-(4-methylpiperazin-1-ylmethyl)-N-{4-methyl-3-[4-(5-pyrimidinyl)pyridin-2-ylamino]phenyl}benzamide] | 244 to 246 °C (dec.) | 0.0048 µM | 9.1 µM | 1895.8 | 
17 | Cc1ccc(NC(=O)c2ccc(CN3CCN(C)CC3)c(Br)c2)cc1Nc1cccc(-c2cccnc2)c1 [Example 18, 3-bromo-4-(4-methylpiperazin-1-ylmethyl)-N-{4-methyl-3-[3-(3-pyridyl)phenylamino]phenyl}benzamide] | 174 to 175 °C |  |  |  | 
18 | Cc1ccc(NC(=O)c2ccc(CN3CCN(C)CC3)c(Br)c2)cc1Nc1cncc(-c2cccnc2)n1 [Example 19, 3-bromo-4-(4-methylpiperazin-1-ylmethyl)-N-{4-methyl-3-[2-(3-pyridyl)pyrazin-6-ylamino]phenyl}benzamide] |  | 0.06 µM | 2.4 µM | 40.0 | 
19 | Cc1ccc(NC(=O)c2ccc(CN3CCN(C)CC3)c(Br)c2)cc1Nc1nncc(-c2cccnc2)n1 [Example 20, 3-bromo-4-(4-methylpiperazin-1-ylmethyl)-N-{4-methyl-3-[5-(3-pyridyl)-1,2,4-triazin-3-ylamino]phenyl}benzamide] |  | 0.015 µM | 1.82 µM | 121.3 | 
20 | Cc1cc(C(=O)Nc2ccc(C)c(Nc3nccc(-c4cccnc4)n3)c2)ccc1CN1CCN(C)CC1 [Example 21, 3-methyl-4-(4-methylpiperazin-1-ylmethyl)-N-{4-methyl-3-[4-(3-pyridyl)pyrimidin-2-ylamino]phenyl}benzamide] | 192 to 193 °C | 0.0053 µM | > 10 µM | >1886.8 | 
21 | Cc1ccc(NC(=O)c2ccc(CN3CCN(C)CC3)c([N+](=O)[O-])c2)cc1Nc1nccc(-c2cccnc2)n1 [Example 22, 4-(4-methylpiperazin-1-ylmethyl)-3-nitro-N-{4-methyl-3-[4-(3-pyridyl)pyrimidin-2-ylamino]phenyl}benzamide] |  | 0.0032 µM | 6.56 µM | 2050.0 | 
22 | COc1cc(C(=O)Nc2ccc(C)c(Nc3nccc(-c4cccnc4)n3)c2)ccc1CN1CCN(C)CC1 [Example 23, 3-methoxy-4-(4-methylpiperazin-1-ylmethyl)-N-{4-methyl-3-[4-(3-pyridyl)pyrimidin-2-ylamino]phenyl}benzamide] | 171 to 172 °C (dec.) | 0.0094 µM | > 10 µM | >1063.8 | 
23 | Cc1ccc(NC(=O)c2cc(Br)c(CN3CCN(C)CC3)c(Br)c2)cc1Nc1nccc(-c2cccnc2)n1 [Example 24, 3,5-dibromo-4-(4-methylpiperazin-1-ylmethyl)-N-{4-methyl-3-[4-(3-pyridyl)pyrimidin-2-ylamino]phenyl}benzamide] | 227 to 229 °C | 0.0015 µM | 7.29 µM | 4860.0 | 
24 | Cc1ccc(NC(=O)c2ccc(CN3CCN(C)CC3)c(C(=O)N(C)C)c2)cc1Nc1nccc(-c2cccnc2)n1 [Example 26, 3-(N,N-dimethylcarbamoyl)-4-(4-methylpiperazin-1-ylmethyl)-N-{4-methyl-3-[4-(3-pyridyl)pyrimidin-2-ylamino]phenyl}benzamide] | 210 to 214 °C (dec.) |  |  |  | 
25 | CCN1CCN(Cc2ccc(C(=O)Nc3ccc(C)c(Nc4nccc(-c5cccnc5)n4)c3)cc2Br)CC1 [Example 27, 3-bromo-4-(4-ethylpiperazin-1-ylmethyl)-N-{4-methyl-3-[4-(3-pyridyl)pyrimidin-2-ylamino]phenyl}benzamide] |  | 0.00049 µM | 7.16 µM | 14612.2 | 
26 | Cc1ccc(NC(=O)c2ccc(CN3CCCCC3)c(Br)c2)cc1Nc1nccc(-c2cccnc2)n1 [Example 32, 3-bromo-4-(piperidinomethyl)-N-{4-methyl-3-[4-(3-pyridyl)pyrimidin-2-ylamino]phenyl}benzamide] | 158 to 159 °C |  |  |  | 
27 | Cc1ccc(NC(=O)c2ccc(CN3C[C@@H](C)N[C@@H](C)C3)c(Br)c2)cc1Nc1nccc(-c2cccnc2)n1 [Example 34, 3-bromo-4-(cis-3,5-dimethylpiperazin-1-ylmethyl)-N-{4-methyl-3-[4-(3-pyridyl)pyrimidin-2-ylamino]phenyl}benzamide] | 204 to 205 °C |  |  |  | 
28 | Cc1ccc(NC(=O)c2ccc(CN3CCNCC3)c(Br)c2)cc1Nc1nccc(-c2cncnc2)n1 [Example 36, 3-bromo-4-(1-piperazinylmethyl)-N-{4-methyl-3-[4-(5-pyrimidinyl)pyrimidin-2-ylamino]phenyl}benzamide] |  |  |  |  | 0.0041 µM
29 | Cc1ccc(NC(=O)c2ccc(CN3CCNCC3)c(C(F)(F)F)c2)cc1Nc1nccc(-c2cncnc2)n1 [Example 38, 4-(1-piperazinylmethyl)-3-trifluoromethyl-N-{4-methyl-3-[4-(5-pyrimidinyl)pyrimidin-2-ylamino]phenyl}benzamide] |  |  |  |  | 0.00093 µM
